The target of test [1] is T1, PDE4B2: full-length human PDE4B2 isozyme (Homo sapiens, UniProt Q07343).
T1 construct: made in house; host or cells: baculovirus infected insect cells (pFastBacHT)
The experiment in a line: PDE4 IC50 determination by Scintillation Proximity Assay (SPA), full-length PDE4B2. Type of test: biochemical. The following applies: cell lysate, [3H]cAMP SPA. Here is the method: (§1) The enzyme was not purified from the cell lysates, so enzyme concentrations were not determined. Enzyme was stored in 50% glycerol at −20°.
(§2) IC50s were determined by Scintillation Proximity Assay (SPA). The principle of the assay is based on the fact that cAMP, the PDE4 substrate, binds weakly to Yittrium Silicate SPA beads, whereas AMP, the product of PDE4 hydrolysis binds strongly. Thus, the extent of PDE4 hydrolysis of a sample of [^3H]cAMP can be measured because only the [^3H]AMP produced by PDE4 hydrolysis will bind to the SPA beads and produce a scintillation signal.
(§3) In addition to the compound dilutions, each assay plate contained control wells with 1 μl of DMSO (to define 0% enzyme inhibition) or 1 μl of 200 μM roflumilast (to define 100% enzyme inhibition). Using a Beckman FX robot, 10 μl of [^3H] cAMP (Amersham TRK559) at […] in assay buffer (50 mM Tris, pH 7.5; 8.3 mM MgCl; 1.7 mM EGTA; 0.01% BSA) was transferred to each assay well. Next, 10 μl of PDE4 enzyme in assay buffer was added and the plates were shaken for 30 s. at 1000 rpm to start the cAMP hydrolysis reaction. The concentrations of enzyme used were: PDE4B, 80 ng/ml; PDE4D, 4 ng/ml; PDE4B2, 2.5 μl of 50% glycerol stock/ml; PDE4D5 0.083 μl of 50% glycerol stock/ml. Assay plates were covered and incubated for 30 min. at 30° C. Reactions were stopped by robotic addition of 10 μl of 5 mg/ml SPA beads (Amersham RPNQ0013) in 18 mM ZnSO4. The assay plates were covered with clear plastic film, centrifuged for 1 min. at 1000 RPM to settle the SPA beads, and counted using a Wallac TriLux scintillation counter. IC50's were calculated from the raw assay data by non-linear regression curve fitting using the Assay Explorer software package from MDL.

For test [2], the target named is T2, PDE4B: catalytic domain of human PDE4B from S152-S528 (Homo sapiens, UniProt Q07343).
T2 construct: The catalytic domain of human PDE4B from S152-S528; His6 (N, cleaved yes); thrombin cleavage site (N, cleaved yes); made in house; host or cells: E. coli BL21 (DE3) RIL
T2 sequence (Q07343 324-700): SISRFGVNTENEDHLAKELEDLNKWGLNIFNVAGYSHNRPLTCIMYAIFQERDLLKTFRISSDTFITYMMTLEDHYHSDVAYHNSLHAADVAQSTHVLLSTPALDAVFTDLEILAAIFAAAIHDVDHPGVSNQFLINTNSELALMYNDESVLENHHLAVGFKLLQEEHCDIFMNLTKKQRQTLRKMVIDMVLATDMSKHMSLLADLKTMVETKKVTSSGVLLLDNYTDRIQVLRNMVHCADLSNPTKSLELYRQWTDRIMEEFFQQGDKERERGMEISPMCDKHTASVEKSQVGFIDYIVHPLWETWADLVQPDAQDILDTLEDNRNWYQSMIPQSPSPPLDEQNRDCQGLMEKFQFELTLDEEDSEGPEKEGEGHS
The experiment in a line: PDE4 IC50 determination by Scintillation Proximity Assay (SPA), PDE4B catalytic domain. The test is classed as biochemical. The following applies: [3H]cAMP SPA, 30 min at 30° C. Here is the method:
as §2
Enzyme was stored in 50% glycerol at −20°.
as §3

In test [3] the target is T3, PDE4D5: full-length human PDE4D5 isozyme (Homo sapiens, UniProt Q08499).
T3 construct: made in house; host or cells: baculovirus infected insect cells (pFastBacHT)
T3 sequence (Q08499 with tags, fused parts or gaps isoform Q08499-6): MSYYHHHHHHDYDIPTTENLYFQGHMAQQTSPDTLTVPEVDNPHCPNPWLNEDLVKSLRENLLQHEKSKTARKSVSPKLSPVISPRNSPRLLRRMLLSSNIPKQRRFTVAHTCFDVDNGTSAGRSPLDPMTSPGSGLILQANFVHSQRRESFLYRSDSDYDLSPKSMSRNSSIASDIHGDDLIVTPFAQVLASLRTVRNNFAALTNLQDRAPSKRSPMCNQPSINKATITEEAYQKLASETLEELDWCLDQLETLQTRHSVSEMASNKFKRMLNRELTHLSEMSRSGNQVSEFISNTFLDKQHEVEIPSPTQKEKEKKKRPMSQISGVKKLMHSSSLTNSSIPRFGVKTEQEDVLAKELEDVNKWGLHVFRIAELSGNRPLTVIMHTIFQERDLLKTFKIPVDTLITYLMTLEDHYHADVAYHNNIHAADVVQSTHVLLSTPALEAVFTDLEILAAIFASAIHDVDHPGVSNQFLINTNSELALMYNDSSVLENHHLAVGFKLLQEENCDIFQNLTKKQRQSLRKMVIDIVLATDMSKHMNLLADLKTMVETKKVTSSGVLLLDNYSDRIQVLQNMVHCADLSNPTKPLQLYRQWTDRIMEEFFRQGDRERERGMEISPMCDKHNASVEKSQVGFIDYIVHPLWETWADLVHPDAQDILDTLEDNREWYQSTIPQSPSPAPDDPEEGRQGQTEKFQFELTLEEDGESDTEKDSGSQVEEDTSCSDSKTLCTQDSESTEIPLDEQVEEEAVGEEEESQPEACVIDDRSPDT
The experiment in a line: PDE4 IC50 determination by Scintillation Proximity Assay (SPA), full-length PDE4D5. The test is classed as biochemical. Conditions: cell lysate, [3H]cAMP SPA. Here is the method: as §1, §2, §3
Background: Scintillation proximity formats need no separation of bound from free tracer.

Test [4] relates to TNF-α release from whole blood cultures stimulated with LPS. As to the kind of experiment: IC50 by TNF alpha production upon stimulation of whole blood cultures with LPS. The following applies: human whole blood (buffy coat) culture, 100 ng/ml LPS, 4 hours; read-out: h TNFα IC50. Type of test: cell-based. Here is the method: Compounds were assayed to generate IC50 numbers based on the inhibition of TNF-α release from whole blood cultures, using the following assay protocol (see Table 5 for compounds tested and results). Inhibition of PDE4B results in the inhibition of TNF-α release by whole blood cultures stimulated with lipopolysaccharide (LPS). The measurement of TNF-α release was used to assess compounds as PDE4B inhibitors.
Compounds were provided in DMSO at 20 mM and 2 μl per well was added to one row of a dilution plate. Added 98 μl of RPMI 1640 media with 2.5% heat inactivated FBS to each well containing compound. The same media with 2% DMSO was prepared and 60 μl was added to each of the empty wells in the dilution plate. The compound was serially diluted 1:3 (30 μl to 60 μl of media) for a total of 8 concentrations per compound. Wells were also prepared with 50 μM roflumilast and piclamilast as 100% inhibition controls, and 2% DMSO in media was used as 0% inhibition control. A 20 μl aliquot of each sample was transferred to an assay plate in duplicate.
Human buffy coat was obtained from the Stanford Medical School Blood Center and diluted with 7 volumes of RPMI 1640 media with 1% penicillin/streptomycin and 2.5% heat inactivated FBS. A 160 μl aliquot of the diluted blood was added to each well of the assay plates, mixed and incubated for 1 hour at 37° C. in 5% CO2. LPS (Sigma catalog number L2637) that had been diluted to 1 mg/ml in PBS and stored as 20 μl aliquots at −20° C. was thawed and diluted 1000× to 1 μg/ml. A 20 μl aliquot of this was added to each sample (final concentration 100 ng/ml LPS) after the 1 hour incubation. A background sample was prepared without addition of LPS as well. The samples were mixed on a shaker for one minute at 900 RPM and incubated for 4 hours at 37° C. in 5% CO2. The plates were then put on a shaker for one minute at 900 RPM, followed by centrifuging at 100×g for 10 minutes, deceleration setting of 5. The top 75 μl of supernatant was carefully pipetted to a new plate and frozen at −20° C.
A 50 μl aliquot of incubation buffer (Biosource International Immunoassay Kit:Human TNF-α catalog number KHC3011) was added to each well of a plate coated with monoclonal antibody specific for hTNF-α (Biosource kit). The supernatant blood samples were thawed and a 50 μl aliquot along with 50 μl of diluent buffer (Biosource kit) were added to incubation buffer and the samples were incubated for 2 hours at room temperature. The samples were washed 4 times with 300 μl/well wash buffer (Biosource kit). A 100 μl aliquot of biotinylated anti-TNFalpha (Biosource kit) was added and the samples incubated for 1 hour at room temperature. The samples were washed 4 times with 300 μl/well wash buffer. A 100 μl aliquot of Streptavidin-HRP solution (BioSource kit) was added and the samples incubated for 30 minutes at room temperature. The samples were washed 4 times with 300 μl/well wash buffer. A 100 μl aliquot of Chromagen (Biosource kit) was added and the samples incubated in the dark for 30 minutes. A 100 μl aliquot of stop solution (2N H2SO4) was added to each sample and samples were read at 450 nm on a WallacVictor for 0.1 sec/well.

Bounds are passed on as bounds.

T1 sequence (Q07343 with tags, fused parts or gaps isoform Q07343-2): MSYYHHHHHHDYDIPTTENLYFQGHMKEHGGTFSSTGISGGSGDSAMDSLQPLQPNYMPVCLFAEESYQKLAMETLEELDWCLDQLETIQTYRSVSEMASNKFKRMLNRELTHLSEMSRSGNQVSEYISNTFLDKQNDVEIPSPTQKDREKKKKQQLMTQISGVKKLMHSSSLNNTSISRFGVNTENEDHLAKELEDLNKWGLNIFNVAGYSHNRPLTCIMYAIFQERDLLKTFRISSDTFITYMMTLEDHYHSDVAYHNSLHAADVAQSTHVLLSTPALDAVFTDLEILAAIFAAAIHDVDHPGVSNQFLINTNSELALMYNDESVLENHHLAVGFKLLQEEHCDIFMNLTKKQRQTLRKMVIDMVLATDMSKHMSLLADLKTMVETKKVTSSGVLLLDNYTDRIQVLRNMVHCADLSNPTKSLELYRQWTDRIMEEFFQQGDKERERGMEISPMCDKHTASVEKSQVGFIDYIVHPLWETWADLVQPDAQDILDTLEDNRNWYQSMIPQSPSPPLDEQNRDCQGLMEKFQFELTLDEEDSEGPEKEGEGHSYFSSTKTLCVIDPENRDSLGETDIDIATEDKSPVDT

As a reminder, the IC50 is the concentration needed to halve the response being measured. Take `COc1ccc(-c2cn(C(C)=O)c3ncccc23)cc1OC` [Compound 67, 1-[3-(3,4-Dimethoxy-phenyl)-pyrrolo[2,3-b]pyridin-1-yl]-ethanone]: the IC50 was under 10 µM in test [1], under 10 µM in test [2], under 10 µM in test [3] and at most 10 µM in test [4].
On to `COc1ccc(-c2cn(Cc3c(C)ccc4ccccc34)c3ncccc23)cc1OC` [Compound 76, 3-(3,4-Dimethoxy-phenyl)-1-(2-methyl-naphthalen-1-ylmethyl)-1H-pyrrolo[2,3-b]pyridine], for which the IC50 in test [1] was under 10 µM; in test [2], under 10 µM; in test [3], under 10 µM; in test [4] it was at most 10 µM.
For `COc1ccc(-c2cnc3[nH]ccc3c2)cc1OC` [Compound 82, 5-(3,4-Dimethoxy-phenyl)-1H-pyrrolo[2,3-b]pyridine], the IC50 in test [1] is under 10 µM; in test [2], under 10 µM; in test [3], under 10 µM; in test [4], at most 10 µM.
Take `COc1ccc(-c2cn(C(=O)Nc3ccc(Cl)cc3)c3ncccc23)cc1OC` [Compound 26, 3-(3,4-dimethoxy-phenyl)-pyrrolo[2,3-b]pyridine-1-carboxylic acid (4-chloro-phenyl)-amide]: the IC50 was under 10 µM in test [1], under 10 µM in test [2], under 10 µM in test [3] and at most 10 µM in test [4].
As to `COc1ccc(-c2ccnc3c2ccn3S(=O)(=O)Cc2ccccc2)cc1OC` [Compound 127, 4-(3,4-Dimethoxy-phenyl)-1-phenylmethanesulfonyl-1H-pyrrolo[2,3-b]pyridine], the concentration for half-maximal inhibition (IC50) in test [1] was under 10 µM; in test [2], under 10 µM; in test [3], under 10 µM; in test [4], at most 10 µM.
Consider `COc1ncc(-c2cn(S(=O)(=O)c3cccc4cccnc34)c3ncccc23)cn1` [Compound 43, 8-[3-(2-methoxy-pyrimidin-5-yl)-pyrrolo[2,3-b]pyridine-1-sulfonyl]-quinoline], for which the IC50 in test [1] was under 10 µM; in test [2], under 10 µM; in test [3], under 10 µM; in test [4], at most 10 µM.
For the molecule `COc1cc(NC(=O)n2cc(-c3ccc(OC)c(OC)c3)c3cccnc32)cc(OC)c1` [Compound 29, 3-(3,4-Dimethoxy-phenyl)-pyrrolo[2,3-b]pyridine-1-carboxylic acid (3,5-dimethoxy-phenyl)-amide], the IC50 in test [1] was under 10 µM; in test [2], under 10 µM; in test [3] it was under 10 µM; in test [4] it was at most 10 µM.
In the case of `COc1ccc(-c2cn(S(=O)(=O)c3ccc4ccccc4c3)c3ncccc23)cc1OC` [Compound 11, 3-(3,4-Dimethoxy-phenyl)-1-(naphthalene-2-sulfonyl)-1H-pyrrolo[2,3-b]pyridine], the IC50 in test [1] was under 10 µM; in test [2], under 10 µM; in test [3], under 10 µM; in test [4] it was at most 10 µM.
`COc1ccc(-c2cn(S(=O)(=O)c3ccc(C)c4ccccc34)c3ncccc23)cc1OC` [Compound 12, 3-(3,4-Dimethoxy-phenyl)-1-(4-methyl-naphthalene-1-sulfonyl)-1H-pyrrolo[2,3-b]pyridine]: the IC50 in test [1] is under 10 µM; in test [2] it was under 10 µM; in test [3] it was under 10 µM; in test [4], over 10 µM.
On to `COc1ccc(-c2cn(C(=O)c3cccc4ccccc34)c3ncccc23)cc1OC` [Compound 58, [3-(3,4-Dimethoxy-phenyl)-pyrrolo[2,3-b]pyridin-1-yl]-(1-naphthyl)-methanone-amide], for which the IC50 was under 10 µM in test [1], under 10 µM in test [2], under 10 µM in test [3] and at most 10 µM in test [4].
For the molecule `COc1ccc(-c2cn(C(=S)Nc3ccccc3)c3ncccc23)cc1OC` [Compound 41, 3-(3,4-dimethoxy-phenyl)-pyrrolo[2,3-b]pyridine-1-carbothioic acid phenylamide], the IC50 was under 10 µM in test [1], under 10 µM in test [2], under 10 µM in test [3] and at most 10 µM in test [4].
With `COc1ccc(-c2cn(S(=O)(=O)c3cccc4cnccc34)c3ncccc23)cc1OC` [Compound 14, 5-[3-(3,4-Dimethoxy-phenyl)-pyrrolo[2,3-b]pyridine-1-sulfonyl]-isoquinoline], the IC50 in test [1] is under 10 µM; in test [2], under 10 µM; in test [3] it was under 10 µM; in test [4], at most 10 µM.
As for `COc1ccc(-c2cn(C(=O)c3ccccc3OC)c3ncccc23)cc1OC` [Compound 68, [3-(3,4-Dimethoxy-phenyl)-pyrrolo[2,3-b]pyridin-1-yl]-(2-methoxyphenyl)-methanone], the IC50 in test [1] is under 10 µM; in test [2] it was under 10 µM; in test [3], under 10 µM; in test [4], at most 10 µM.
With `CCOc1ccc2ccccc2c1C(=O)n1cc(-c2cccc(NS(C)(=O)=O)c2)c2cccnc21` [Compound 122, N-{3-[1-(2-Ethoxy-naphthalene-1-carbonyl)-1H-pyrrolo[2,3-b]pyridin-3-yl]-phenyl}-methanesulfonamide], the half-maximal inhibitory concentration (IC50) is under 10 µM in test [1], under 10 µM in test [3] and at most 10 µM in test [4].
For the molecule `CCOc1ccc2ccccc2c1C(=O)n1cc(-c2cccc(C(=O)OCc3ccccc3)c2)c2cccnc21` [Compound 87, 3-[1-(2-Ethoxy-naphthalene-1-carbonyl)-1H-pyrrolo[2,3-b]pyridin-3-yl]-benzoic acid benzyl ester], the IC50 in test [1] is under 10 µM; in test [3], under 10 µM; in test [4] it was at most 10 µM.
Turning to `COc1ccc(-c2cccc3[nH]ccc23)cc1OC` [Compound 128, 4-(3,4-Dimethoxy-phenyl)-1H-indole], the IC50 in test [1] is under 10 µM; in test [3] it was under 10 µM; in test [4] it was at most 10 µM.
Regarding `CCOc1ccc2ccccc2c1C(=O)n1cc(-c2cccc(S(C)(=O)=O)c2)c2cccnc21` [Compound 86, (2-Ethoxy-naphthalen-1-yl)-[3-(3-methanesulfonyl-phenyl)-pyrrolo[2,3-b]pyridin-1-yl]-methanone], the IC50 was under 10 µM in test [1], under 10 µM in test [3] and at most 10 µM in test [4].
